Experiments:
[1] = tested on: KK-Ay/Ta Jcl mice (animal models for hypertriglyceridemia and hyper-free fatty acidemia); test: Serum triglyceride concentration in KK-Ay/Ta Jcl mice fed compound-supplemented CE-2 feed (Triglyceride G-Test Wako); assay type: in vivo; conditions: for Triglyceride (serum concentration): KK-Ay/Ta Jcl male mice, 1% by weight in CE-2 feed ad libitum, serum after 18 h fast, 10th-11th day, mean ± standard error (n=5), Group 1 (CE-2 only) 282.4 ± 30.3; for Action for improving hypertriglyceridemia (conclusion) / Serum triglyceride concentration as compared with Group 1 (in words): KK-Ay/Ta Jcl mice, 1% by weight in feed; for Serum triglyceride concentration as compared with Group 1 (in words): t-test, p < 0.01 where significant
Description: (§1) KK-Ay/Ta Jcl mice (CLEA JAPAN; males; six weeks age) (25 mice) which are animal models for appearing hypertriglyceridemia and hyper-free fatty acidemia were divided into five groups each comprising five mice and named group 1 to group 5.
(§2) The mice of group 1 to group 5 were made free to take feed and water. A commercially available feed CE-2 (manufactured by CLEA JAPAN) was ingested to the mice of group 1. CE-2 to which 1% by weight of trans-4-hydroxy-L-proline (manufactured by Kyowa Hakko Kogyo; hereinafter, abbreviated as hydroxyproline) was added was ingested to the mice of group 2. CE-2 to which 1% by weight of trans-N-acetyl-4-hydroxy-L-proline (manufactured by Kyowa Hakko Kogyo; hereinafter, abbreviated as N-acetylhydroxyproline) was added was ingested to the mice of group 3. CE-2 to which 1% by weight of trans-4-hydroxy-L-proline ethyl ester (manufactured by Sanyo Kagaku Kenkyusho; hereinafter, abbreviated as hydroxyproline ethyl ester) was added was ingested to the mice of group 4. CE-2 to which 1% by weight of trans-N,O-diacetyl-4-hydroxy-L-proline oleyl ester (manufactured by Nissei Kagaku; hereinafter, abbreviated as diacetylhydroxyproline oleyl ester) was added was ingested to the mice of group 5.
(§3) The mice were fasted for 18 hours during the 10th day to the 11th day after the start of the test and whole blood was collected from descending vena carva to prepare serum. Concentration of triglyceride in the serum was measured by a Triglyceride G-Test Wako (manufactured by Wako Pure Chemical) and concentration of free fatty acids therein was measured by an NEFA C-Test Wak (manufactured by Wako Pure Chemical). The value was shown by mean value ± standard error (n=5) and statistic ratio of risk (p value) was determined by a t-test. With regard to the ingested amounts during the test period, there was no significant difference among the groups 1 to 5.

[2] = tested on: KK-Ay/Ta Jcl mice (animal models for hypertriglyceridemia and hyper-free fatty acidemia); test: Serum free fatty acid concentration in KK-Ay/Ta Jcl mice fed compound-supplemented CE-2 feed (NEFA C-Test); assay type: in vivo; conditions: for Free Fatty Acid (serum concentration): KK-Ay/Ta Jcl male mice, 1% by weight in CE-2 feed ad libitum, serum after 18 h fast, 10th-11th day, mean ± standard error (n=5), Group 1 (CE-2 only) 1.12 ± 0.05; for Action for improving hyper-free fatty acidemia (conclusion) / Free fatty acid concentration in serum as compared with Group 1 (in words): KK-Ay/Ta Jcl mice, 1% by weight in feed; for Free fatty acid concentration in serum as compared with Group 1 (in words): t-test, p < 0.005 where significant
Description: as §1, §2, §3

SMILES | Triglyceride (serum concentration) [1] [mg/dL] | Action for improving hypertriglyceridemia (conclusion) [1] | Serum triglyceride concentration as compared with Group 1 (in words) [1] | Free Fatty Acid (serum concentration) [2] [mEq/l] | Action for improving hyper-free fatty acidemia (conclusion) [2] | Free fatty acid concentration in serum as compared with Group 1 (in words) [2]
CCCCCCCC/C=C\CCCCCCCCOC(=O)[C@@H]1C[C@@H](OC(C)=O)CN1C(C)=O (relative stereo) [diacetylhydroxyproline oleyl ester, trans-N,O-diacetyl-4-hydroxy-L-proline oleyl ester] | 217.6 ± 18.3 | action for improving hypertriglyceridemia | tended to show low values | 1.00 ± 0.07 | action for improving hyper-free fatty acidemia | tended to show low values
CC(=O)N1C[C@H](O)C[C@H]1C(=O)O [N-acetylhydroxyproline, trans-N-acetyl-4-hydroxy-L-proline] | 156.4 ± 23.3 | action for improving hypertriglyceridemia | significantly low | 0.77 ± 0.06 | action for improving hyper-free fatty acidemia | significantly low
CCOC(=O)[C@@H]1C[C@@H](O)CN1 [hydroxyproline ethyl ester, trans-4-hydroxy-L-proline ethyl ester] | 168.7 ± 13.4 | action for improving hypertriglyceridemia | significantly low | 0.68 ± 0.02 | action for improving hyper-free fatty acidemia | significantly low
O=C(O)[C@@H]1C[C@@H](O)CN1 [hydroxyproline, trans-4-hydroxy-L-proline] | 224.3 ± 23.1 | action for improving hypertriglyceridemia | tended to show low values | 0.84 ± 0.05 | action for improving hyper-free fatty acidemia | significantly low

— patent US20070167512A1, “Lipid metabolism improving agent” (Kyowa Hakko Kogyo Co., Ltd., priority 2003, published 2007)
